This is an account of results in ChEMBL document CHEMBL5113491, “Discovery of N-benzylarylamide derivatives as novel tubulin polymerization inhibitors capable of activating the Hippo pathway” (Eur J Med Chem, 2022).

Activity calls are given as the source filed them. The calls are words filed in the database; no cut-off is given here.

The subject of assay [1] is MGC-803. In words: Antiproliferative activity against human MGC-803 cells assessed as inhibition of cell growth measured after 48 hrs by MTT assay. Type of assay: functional, cell-based. Conditions: MGC-803, 48 h.
In assay [2] the test system is HCT-116. Kind of assay: Antiproliferative activity against human HCT-116 cells assessed as inhibition of cell growth measured after 48 hrs by MTT assay. In kind it is functional, cell-based. Particulars: HCT-116, 48 h. Background: Tetrazolium dyes change colour on reduction, which living cells bring about.
In assay [3] the test system is KYSE-450. In words: Antiproliferative activity against human KYSE-450 cells assessed as inhibition of cell growth measured after 48 hrs by MTT assay. Type of assay: functional, cell-based. Particulars: KYSE-450, 48 h.
For assay [4], the species on record is Sus scrofa. Kind of assay: Inhibition of porcine brain microtubule polymerization at 3 umol/L measured after 5 sec by fluorescence based assay. Conditions: dose 3.0 µmol/L.
A short description of assay [5]: Inhibition of porcine brain microtubule polymerization measured after 1 hrs by fluorescence based assay. Set-up: species or system Sus scrofa.

In general, IC50 refers to the midpoint of a concentration-inhibition curve. Consider `COc1ccc(CN(C(=O)C(C)C)c2cc(OC)c(OC)c(OC)c2)cc1O`, for which the half-maximal inhibitory concentration (IC50) in assay [1] came to 210 nM; in assay [2], 310 nM; in assay [3], 390 nM.

As to `C/C=C/C(=O)N(Cc1ccc(OC)c([N+](=O)[O-])c1)c1cc(OC)c(OC)c(OC)c1`, the 50% inhibitory concentration (IC50) in assay [1] came to 590 nM; in assay [2], 670 nM; in assay [3], 510 nM.

Regarding `C/C=C/C(=O)N(Cc1ccc(OC)c(Cl)c1)c1cc(OC)c(OC)c(OC)c1`, the values for the half-inhibitory concentration (IC50) in assay [1], in assay [2] and in assay [3] were 7100 nM, 1420 nM and 10100 nM, respectively.

In the case of `CCCCC(=O)N(Cc1ccc(OC)c(O)c1)c1cc(OC)c(OC)c(OC)c1`, the 50% inhibitory concentration (IC50) in assay [1] was 66 nM; in assay [2] it was 170 nM; in assay [3], 300 nM.

Take `COc1ccc(CN(C(=O)C2CC2)c2cc(OC)c(OC)c(OC)c2)cc1O`: the IC50 came to 59 nM in assay [1], 49 nM in assay [2] and 80 nM in assay [3].

Regarding `CCC(=O)N(Cc1ccc(OC)c(O)c1)c1cc(OC)c(OC)c(OC)c1`, the half-maximal inhibitory concentration (IC50) in assay [1] came out at 50 nM; in assay [2] it was 61 nM; in assay [3], 98 nM.

With `C/C=C/C(=O)N(Cc1ccc(OC)cc1)c1cc(OC)c(OC)c(OC)c1`, the concentration for half-maximal inhibition (IC50) in assay [1] stood at 450 nM; in assay [2], 500 nM; in assay [3] it was 420 nM.

Take `C/C=C/C(=O)N(Cc1ccc(OC)c(N)c1)c1cc(OC)c(OC)c(OC)c1`: the figures for the IC50 in assay [1], in assay [2] and in assay [3] were 150 nM, 300 nM and 310 nM, respectively.

As for `CC/C=C/C(=O)N(Cc1ccc(OC)c(O)c1)c1cc(OC)c(OC)c(OC)c1`, the IC50 was found to be 58 nM in assay [1], 63 nM in assay [2] and 72 nM in assay [3].

As to `COc1ccc(CN(C(=O)CCCl)c2cc(OC)c(OC)c(OC)c2)cc1O`, the IC50 in assay [1] is 140 nM; in assay [2] it was 150 nM; in assay [3] it was 110 nM.

As for `COc1cc(NCc2ccc(Cl)cc2)cc(OC)c1OC`, the IC50 in assay [1], in assay [2] and in assay [3] was greater than 80000 nM each time.

In the case of `COc1ccc(N(Cc2cc(OC)c(OC)c(OC)c2)C(=O)CCl)cc1O`, the IC50 in assay [1] was 24500 nM; in assay [2] it was 22500 nM; in assay [3] it was 29800 nM.

Regarding `COc1ccc(CNc2cc(OC)c(OC)c(OC)c2)cc1O`, the half-inhibitory concentration (IC50) in assay [1] stood at 1490 nM; in assay [2], 3220 nM; in assay [3] it was 1400 nM. Further, in assay [4], the inhibition result was “Active”.

In the case of `COc1ccc(CNc2cc(OC)c(OC)c(OC)c2)cc1C`, the IC50 worked out at 56800 nM in assay [1], 60800 nM in assay [2] and 73800 nM in assay [3].

In the case of `COc1ccc(CN(C(=O)CN=[N+]=[N-])c2cc(OC)c(OC)c(OC)c2)cc1O`, the concentration for half-maximal inhibition (IC50) in assay [1] was 120 nM; in assay [2] it was 410 nM; in assay [3] it was 160 nM.

Consider `COc1ccc(CNc2cc(OC)c(OC)c(OC)c2)cc1[N+](=O)[O-]`, for which the IC50 in assay [1] turned out to be 19400 nM; in assay [2] it was 18200 nM; in assay [3], 16800 nM.

Take `C=C(C)C(=O)N(Cc1ccc(OC)c(O)c1)c1cc(OC)c(OC)c(OC)c1`: the results for the IC50 in assay [1], in assay [2] and in assay [3] were 390 nM, 200 nM and 200 nM, respectively.

Regarding `C=CC(=O)N(Cc1ccc(OC)c(O)c1)c1cc(OC)c(OC)c(OC)c1`, the 50% inhibitory concentration (IC50) amounted to 62 nM in assay [1], 98 nM in assay [2] and 160 nM in assay [3].

Take `COc1ccc(CN(C(=O)/C=C/CBr)c2cc(OC)c(OC)c(OC)c2)cc1O`: the 50% inhibitory concentration (IC50) amounted to 71 nM in assay [1], 59 nM in assay [2] and 100 nM in assay [3].

For `COc1cc2c(c(OC)c1OC)-c1ccc(OC)c(=O)cc1[C@@H](NC(C)=O)CC2` [COLCHICINE], the IC50 in assay [1] is 62 nM; in assay [2], 81 nM; in assay [3] it was 77 nM.

Consider `C/C=C/C(=O)N(Cc1ccc(OC)c(Br)c1)c1cc(OC)c(OC)c(OC)c1`, for which the values for the IC50 in assay [1], in assay [2] and in assay [3] were 6430 nM, 2800 nM and 10500 nM, respectively.

As to `COc1ccc(CN(C(=O)C(C)Br)c2cc(OC)c(OC)c(OC)c2)cc1O` (centres undefined), the values for the IC50 in assay [1], in assay [2] and in assay [3] were 120 nM, 140 nM and 160 nM, respectively.

For `COC(=O)c1cc(CNc2cc(OC)c(OC)c(OC)c2)ccc1OC`, the concentration for half-maximal inhibition (IC50) was 49600 nM in assay [1], 38100 nM in assay [2] and 41100 nM in assay [3].

With `COc1ccc(CNc2cc(OC)c(OC)c(OC)c2)cc1Br`, the IC50 amounted to 29400 nM in assay [1], 48100 nM in assay [2] and 39800 nM in assay [3].

On to `C/C=C/C(=O)N(Cc1ccc(OC)c(F)c1)c1cc(OC)c(OC)c(OC)c1`, for which the IC50 in assay [1] came to 1650 nM; in assay [2] it was 1160 nM; in assay [3], 1400 nM.

For `COc1cc(NCc2ccccc2)cc(OC)c1OC`, the half-inhibitory concentration (IC50) in assay [1], in assay [2] and in assay [3] was greater than 80000 nM each time.

With `COc1ccc(CNc2cc(OC)c(OC)c(OC)c2)cc1Cl`, the IC50 came out at 46200 nM in assay [1], 41700 nM in assay [2] and 47800 nM in assay [3].

Turning to `COc1ccc(CNc2cc(OC)c(OC)c(OC)c2)cc1`, the IC50 in assay [1] is 11400 nM; in assay [2] it was 18400 nM; in assay [3], 4890 nM.

In the case of `COc1ccc(CNc2cc(OC)c(OC)c(OC)c2)cc1OC`, the concentration for half-maximal inhibition (IC50) in assay [1] amounted to 46200 nM; in assay [2], 50800 nM; in assay [3] it was 57200 nM.

Consider `C/C=C/C(=O)N(Cc1ccc(OC)c(OC)c1)c1cc(OC)c(OC)c(OC)c1`, for which the IC50 in assay [1] turned out to be 20100 nM; in assay [2], 32800 nM; in assay [3], 39100 nM.

As for `C/C=C/C(=O)N(Cc1ccc(OC)c(C)c1)c1cc(OC)c(OC)c(OC)c1`, the concentration for half-maximal inhibition (IC50) came out at 14500 nM in assay [1], 23500 nM in assay [2] and 32900 nM in assay [3].

Turning to `COc1ccc(CN(C(=O)CCCCCl)c2cc(OC)c(OC)c(OC)c2)cc1O`, the figures for the IC50 in assay [1], in assay [2] and in assay [3] were 540 nM, 220 nM and 770 nM, respectively.

For `C/C=C/C=C/C(=O)N(Cc1ccc(OC)c(O)c1)c1cc(OC)c(OC)c(OC)c1`, the concentration for half-maximal inhibition (IC50) in assay [1] came out at 140 nM; in assay [2], 180 nM; in assay [3] it was 180 nM.

For the compound `C/C=C/C(=O)N(Cc1cc(OC)c(OC)c(OC)c1)c1ccc(OC)c(O)c1`, the figures for the IC50 in assay [1], in assay [2] and in assay [3] were 6150 nM, 8450 nM and 9160 nM, respectively.

`COc1ccc(CN(C(=O)CBr)c2cc(OC)c(OC)c(OC)c2)cc1O`: the IC50 was 140 nM in assay [1], 68 nM in assay [2] and 120 nM in assay [3].

`COc1ccc(CNc2cc(OC)c(OC)c(OC)c2)cc1F`: the IC50 in assay [1] came to 39700 nM; in assay [2], 32200 nM; in assay [3], 46200 nM.

On to `COc1ccc(/C=C\c2cc(OC)c(OC)c(OC)c2)cc1O` [COMBRETASTATIN A4], for which the half-maximal inhibitory concentration (IC50) in assay [1] was 8 nM; in assay [5], 6710 nM; in assay [2], 10 nM; in assay [3], 12 nM.

In the case of `COc1ccc(CN(C(=O)CO)c2cc(OC)c(OC)c(OC)c2)cc1O`, the half-inhibitory concentration (IC50) in assay [1] was 160 nM; in assay [2], 520 nM; in assay [3], 370 nM.

Take `COc1ccc(N(Cc2cc(OC)c(OC)c(OC)c2)C(=O)CN=[N+]=[N-])cc1O`: the values for the IC50 in assay [1], in assay [2] and in assay [3] were 22400 nM, 38800 nM and 26100 nM, respectively.

`COCC(=O)N(Cc1ccc(OC)c(O)c1)c1cc(OC)c(OC)c(OC)c1`: the IC50 in assay [1] came out at 79 nM; in assay [2], 230 nM; in assay [3], 460 nM.

Take `COc1cc(NCc2cccc(O)c2)cc(OC)c1OC`: the IC50 in assay [1] was 57600 nM; in assay [2], 67700 nM; in assay [3], 71300 nM.

As for `COc1ccc(CN(C(C)=O)c2cc(OC)c(OC)c(OC)c2)cc1O`, the figures for the IC50 in assay [1], in assay [2] and in assay [3] were 79 nM, 270 nM and 160 nM, respectively.

As for `COc1ccc(CN(C(=O)CCl)c2cc(OC)c(OC)c(OC)c2)cc1O`, the half-inhibitory concentration (IC50) in assay [1] is 84 nM; in assay [2], 250 nM; in assay [3], 210 nM.

For the compound `C/C=C/C(=O)N(Cc1cccc(O)c1)c1cc(OC)c(OC)c(OC)c1`, the values for the 50% inhibitory concentration (IC50) in assay [1], in assay [2] and in assay [3] were 14100 nM, 6700 nM and 14700 nM, respectively.

As for `COc1ccc(NCc2cc(OC)c(OC)c(OC)c2)cc1O`, the half-inhibitory concentration (IC50) in assay [1] was 9590 nM; in assay [2], 5230 nM; in assay [3] it was 4180 nM. In addition, the inhibition entry in assay [4] is “Active”.

For the compound `COc1cc(NCc2ccc(C)cc2)cc(OC)c1OC`, the IC50 in assay [1], in assay [2] and in assay [3] was greater than 80000 nM each time.

In the case of `COc1cc(NCc2ccc(Br)cc2)cc(OC)c1OC`, the concentration for half-maximal inhibition (IC50) in assay [1], in assay [2] and in assay [3] was greater than 80000 nM in each case.

Turning to `CCC/C=C/C(=O)N(Cc1ccc(OC)c(O)c1)c1cc(OC)c(OC)c(OC)c1`, the IC50 in assay [1] came out at 70 nM; in assay [2], 95 nM; in assay [3], 57 nM.

As for `C#CC(=O)N(Cc1ccc(OC)c(O)c1)c1cc(OC)c(OC)c(OC)c1`, the concentration for half-maximal inhibition (IC50) was 170 nM in assay [1], 310 nM in assay [2] and 570 nM in assay [3].

As for `COc1ccc(CNc2cc(OC)c(OC)c(OC)c2)cc1N`, the 50% inhibitory concentration (IC50) in assay [1] stood at 7970 nM; in assay [2], 8270 nM; in assay [3] it was 2210 nM.

Turning to `COc1ccc(CN(C(=O)C=C(C)C)c2cc(OC)c(OC)c(OC)c2)cc1O`, the half-maximal inhibitory concentration (IC50) was 320 nM in assay [1], 290 nM in assay [2] and 280 nM in assay [3].

With `COc1ccc(CN(C(=O)C[Se]C#N)c2cc(OC)c(OC)c(OC)c2)cc1O`, the IC50 was 270 nM in assay [1], 310 nM in assay [2] and 280 nM in assay [3].
